Reference: US20100292255A1, “Therapeutic Compounds and Their Use in Treating Diseases and Disorders” (Myriad Pharmaceuticals, Inc., priority 2007, published 2010)

tested on: T1, purified human Hsp90; assay: Hsp90 binding assay: displacement of BODIPY-labeled geldanamycin measured by fluorescence polarization; conditions: 5 μM compound; BODIPY-GM 10 nM, Hsp90 30 nM, overnight at room temperature
T1 construct: purified human Hsp90 (Stressgen, SPP-770)
Outline: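 Fluorescence polarization measured displacement of BODIPY-geldanamycin (10 nM) from purified human Hsp90 (30 nM). The buffer was HEPES-KOH pH 7.3 with molybdate, NP-40, gamma globulin and DTT, 2% DMSO, overnight at room temperature, ex/em 485/530 nm. % inhibition was calculated against DMSO controls, and points confounded by compound fluorescence were excluded.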

SMILES | GM displacement from purified Hsp90 measured by FP Inhibition by 5 μM compd. (%)
COc1cc(OC)c(Cl)c(Sc2nc3c(N)ncn(CC4CCCN(C(=O)[C@H](C)NC(=O)OC(C)(C)C)C4)c-3n2)c1 (stereo partly drawn) [compound 118, tert-Butyl {(1S)-2[3-({6-amino-8-[(2-chloro-3,5-dimethoxyphenyl)thio]-3H-purin-3-yl}methyl)piperidin-1-yl]-1-methyl-2-oxoethyl}carbamate] | 12.0
N#Cc1cc2c(cc1Sc1nc3c(N)ncn(CCC4CCN(C(=O)[C@@H](N)C(F)(F)F)CC4)c-3n1)OCO2 [compound 134, 6-[(6-amino-3-{2-[1-(3,3,3-trifluoroalanyl)piperidin-4-yl]ethyl}-3H-purin-8-yl)thio]-1,3-benzodioxole-5-carbonitrile] | 9.0
CN(C)C(CCn1cnc(N)c2nc(Sc3cc4c(cc3Br)OCCO4)nc1-2)C1CC1 (stereo not drawn) [compound 143, 8-[(7-bromo-2,3-dihydro-1,4-benzodioxin-6-yl)thio]-3-[3-cyclopropyl-3-(dimethylamino)propyl]-3H-purin-6-amine] | 27.0

same assay, conditions: BODIPY-GM 10 nM, Hsp90 30 nM, overnight at room temperature; read-out: GM displacement from purified Hsp90 measured by FP IC 50

SMILES | IC50 [nM]
C[C@@H](NC(=O)OC(C)(C)C)C(=O)N1CCC(Cn2c(Sc3cc4c(cc3Br)OCCO4)nc3c(N)ncnc32)CC1 [compound 120, tert-Butyl {(1R)-2-[4-({6-amino-8-[(7-bromo-2,3-dihydro-1,4-benzodioxin-6-yl)thio]-9H-purin-9-yl}methyl)piperidin-1-yl]-1-methyl-2-oxoethyl}carbamate] | 400
COc1cc(OC)c(Cl)c(Sc2nc3c(N)ncnc3n2CC2CCCN(C(=O)[C@H](C)N)C2)c1 (stereo partly drawn) [compound 123, 9-({1-[(2S)-2-Aminopropanoyl]piperidin-3-yl}methyl)-8-[(2-chloro-3,5-dimethoxyphenyl)thio]-9H-purin-6-amine] | 3800
C[C@@H](N)C(=O)N1CCC(Cn2c(Sc3cc4c(cc3Br)OCCO4)nc3c(N)ncnc32)CC1 [compound 124, 9-([1-[(2R)-2-Aminopropanoyl]piperidin-4-yl}methyl)-8-[(7-bromo-2,3-dihydro-1,4-benzodioxin-6-yl)thio]-9H-purin-6-amine] | 295
C[C@H](N)C(=O)N1CCC(Cn2c(Sc3cc4c(cc3Br)OCCO4)nc3c(N)ncnc32)CC1 [compound 125, 9-({1-[(2S)-2-Aminopropanoyl]piperidin-4-yl}methyl)-8-[(7-bromo-2,3-dihydro-1,4-benzodioxin-6-yl)thio]-9H-purin-6-amine] | 500
C[C@H](O)C(=O)N[C@H](C)C(=O)N1CCC(Cn2c(Sc3cc4c(cc3Br)OCCO4)nc3c(N)ncnc32)CC1 [compound 126, (2S)-N-{(1R)-2-[4-({6-Amino-8-[(7-bromo-2,3-dihydro-1,4-benzodioxin-6-yl)thio]-9H-purin-9-yl}methyl)piperidin-1-yl]-1-methyl-2-oxoethyl}-2-hydroxypropanamide] | > 5000
C[C@@H](NC(=O)[C@@H](C)OC(=O)C(C)(C)C)C(=O)N1CCC(Cn2c(Sc3cc4c(cc3Br)OCCO4)nc3c(N)ncnc32)CC1 [compound 127, (1R)-2-({(1R)-2-[4-({6-amino-8-[(7-bromo-2,3-dihydro-1,4-benzodioxin-6-yl)thio]-9H-purin-9-yl}methyl)piperidin-1-yl]-1-methyl-2-oxoethyl}amino)-1-methyl-2-oxoethyl pivalate] | > 5000
C[C@@H](NC(=O)C(C)(C)C)C(=O)N1CCC(Cn2c(Sc3cc4c(cc3Br)OCCO4)nc3c(N)ncnc32)CC1 [compound 128, N-{(1R)-2-[4-({6-amino-8-[(7-bromo-2,3-dihydro-1,4-benzodioxin-6-yl)thio]-9H-purin-9-yl}methyl)piperidin-1-yl]-1-methyl-2-oxoethyl}-2,2-dimethylpropanamide] | 440
C[C@@H](NC(=O)CC(C)(C)C)C(=O)N1CCC(Cn2c(Sc3cc4c(cc3Br)OCCO4)nc3c(N)ncnc32)CC1 [compound 129, N-{(1R)-2-[4-({6-Amino-8-[(7-bromo-2,3-dihydro-1,4-benzodioxin-6-yl)thio]-9H-purin-9-yl}methyl)piperidin-1-yl]-1-methyl-2-oxoethyl}-3,3-dimethylbutanamide] | 3000
C[C@H](O)C(=O)N[C@@H](C)C(=O)N1CCC(Cn2c(Sc3cc4c(cc3Br)OCCO4)nc3c(N)ncnc32)CC1 [compound 130, (2S)—N-{(1S)-2-[4-({6-Amino-8-[(7-bromo-2,3-dihydro-1,4-benzodioxin-6-yl)thio]-9H-purin-9-yl}methyl)piperidin-1-yl]-1-methyl-2-oxoethyl}-2-hydroxypropanamide] | 1100
C[C@H](NC(=O)CO)C(=O)N1CCC(Cn2c(Sc3cc4c(cc3Br)OCCO4)nc3c(N)ncnc32)CC1 [compound 131, N-{(1S)-2-[4-({6-Amino-8-[(7-bromo-2,3-dihydro-1,4-benzodioxin-6-yl)thio]-9H-purin-9-yl}methyl)piperidin-1-yl]-1-methyl-2-oxoethyl}-2-hydroxyacetamide] | 1900
N#Cc1cc2c(cc1Sc1nc3c(N)ncnc3n1CCC1CCN(C(=O)[C@@H](N)C(F)(F)F)CC1)OCO2 [compound 133, 6-[(6-Amino-9-{2-[1-(3,3,3-trifluoroalanyl)piperidin-4-yl]ethyl}-9H-purin-8-yl)thio]-1,3-benzodioxole-5-carbonitrile] | 505
N#Cc1cc2c(cc1Sc1nc3c(N)ncnc3n1CCC1CCN(C(=O)[C@@H]3CC(F)(F)CN3)CC1)OCO2 [compound 135, 6-[(6-Amino-9-{2-[1-(4,4-difluoro-L-prolyl)piperidin-4-yl]ethyl}-9H-purin-8-yl)thio]-1,3-benzodioxole-5-carbonitrile] | 900
C[C@@H](N)C(=O)N1CCCC(CCCn2c(Sc3cc4c(cc3Br)OCO4)nc3c(N)ncnc32)C1 (stereo partly drawn) [compound 136, 9-(3-{1-[(2R)-2-Aminopropanoyl]piperidin-3-yl}propyl)-8-[(6-bromo-1,3-benzodioxol-5-yl)thio]-9H-purin-6-amine] | 110
CC(=O)NC(CCn1c(Sc2cc3c(cc2Br)OCO3)nc2c(N)ncnc21)C1CC1 (stereo not drawn) [compound 137, N-{3-[6-Amino-8-(6-bromo-benzo[1,3]dioxol-5-ylsulfanyl)-purin-9-yl]-1-cyclopropyl-propyl}-acetamide] | 240
CC(=O)NC(CCn1c(Sc2cc3c(cc2Br)OCCO3)nc2c(N)ncnc21)C1CC1 (stereo not drawn) [compound 139, N-(3-{6-Amino-8-[(7-bromo-2,3-dihydro-1,4-benzodioxin-6-yl)thio]-9H-purin-9-yl}-1-cyclopropylpropyl)acetamide] | 240
CC(=O)N1CCC(CCn2c(Sc3cc4c(cc3Br)OCCO4)nc3c(N)ncnc32)CC1 [compound 140, 9-[2-(1-Acetylpiperidin-4-yl)ethyl]-8-[(7-bromo-2,3-dihydro-1,4-benzodioxin-6-yl)thio]-9H-purin-6-amine] | 45
Nc1ncnc2c1nc(Sc1cc3c(cc1Br)OCO3)n2CCC(NC(=O)CO)C1CC1 (stereo not drawn) [compound 141, N-(3-{6-Amino-8-[(6-bromo-1,3-benzodioxol-5-yl)thio]-9H-purin-9-yl}-1-cyclopropylpropyl)-2-hydroxyacetamide] | 170
CN(C)C(CCn1c(Sc2cc3c(cc2Br)OCCO3)nc2c(N)ncnc21)C1CC1 (stereo not drawn) [compound 142, 8-[(7-Bromo-2,3-dihydro-1,4-benzodioxin-6-yl)thio]-9-[3-cyclopropyl-3-(dimethylamino)propyl]-9H-purin-6-amine] | 205
